Measured values as given in ChEMBL document CHEMBL1131477, “Synthesis and biological activity of a novel series of nonsteroidal, peripherally selective androgen receptor antagonists derived from 1,2-dihydropyridono[5,6-g]quinolines” (J Med Chem, 1998).

What was measured:
[1] = target: T1, Progesterone receptor (Homo sapiens) (UniProt P06401); test: Efficacy as a function of maximal inhibition against human progesterone receptor B (hPR-B).
T1 sequence (whole entry): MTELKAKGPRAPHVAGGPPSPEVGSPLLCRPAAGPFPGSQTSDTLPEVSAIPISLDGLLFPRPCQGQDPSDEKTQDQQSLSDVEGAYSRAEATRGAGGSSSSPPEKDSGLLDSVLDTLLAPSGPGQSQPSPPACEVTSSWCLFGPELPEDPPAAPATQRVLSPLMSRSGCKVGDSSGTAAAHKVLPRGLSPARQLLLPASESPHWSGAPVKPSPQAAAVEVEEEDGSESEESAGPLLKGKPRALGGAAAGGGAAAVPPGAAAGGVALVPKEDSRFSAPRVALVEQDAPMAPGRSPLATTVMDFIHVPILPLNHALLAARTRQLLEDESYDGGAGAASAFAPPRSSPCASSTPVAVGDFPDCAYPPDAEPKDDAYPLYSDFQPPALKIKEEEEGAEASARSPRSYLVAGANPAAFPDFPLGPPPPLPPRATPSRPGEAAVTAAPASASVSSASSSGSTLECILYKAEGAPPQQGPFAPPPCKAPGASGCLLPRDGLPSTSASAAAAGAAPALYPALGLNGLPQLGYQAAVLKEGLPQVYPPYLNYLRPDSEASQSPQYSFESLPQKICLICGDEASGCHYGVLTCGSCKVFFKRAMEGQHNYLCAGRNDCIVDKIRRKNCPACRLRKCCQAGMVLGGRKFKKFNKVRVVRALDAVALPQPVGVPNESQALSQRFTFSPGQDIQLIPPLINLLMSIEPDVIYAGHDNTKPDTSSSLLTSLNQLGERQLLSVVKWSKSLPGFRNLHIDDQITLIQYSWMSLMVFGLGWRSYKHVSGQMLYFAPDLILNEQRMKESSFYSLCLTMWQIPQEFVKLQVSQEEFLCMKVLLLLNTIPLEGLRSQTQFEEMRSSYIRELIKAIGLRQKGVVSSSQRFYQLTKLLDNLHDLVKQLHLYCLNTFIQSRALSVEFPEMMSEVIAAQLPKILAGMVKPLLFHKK

Progesterone receptor = target: T2, Progesterone receptor (Homo sapiens, UniProt P06401); test: Antagonistic activity against human progesterone receptor B (hPR-B) in co-transfected CV-1 cells.; assay type: functional, cell-based
T2 sequence (P06401 whole entry): T1 sequence (whole entry)

Androgen receptor [2] = target: T3, Androgen receptor (Homo sapiens, UniProt P10275); test: biochemical
T3 sequence (P10275 whole entry): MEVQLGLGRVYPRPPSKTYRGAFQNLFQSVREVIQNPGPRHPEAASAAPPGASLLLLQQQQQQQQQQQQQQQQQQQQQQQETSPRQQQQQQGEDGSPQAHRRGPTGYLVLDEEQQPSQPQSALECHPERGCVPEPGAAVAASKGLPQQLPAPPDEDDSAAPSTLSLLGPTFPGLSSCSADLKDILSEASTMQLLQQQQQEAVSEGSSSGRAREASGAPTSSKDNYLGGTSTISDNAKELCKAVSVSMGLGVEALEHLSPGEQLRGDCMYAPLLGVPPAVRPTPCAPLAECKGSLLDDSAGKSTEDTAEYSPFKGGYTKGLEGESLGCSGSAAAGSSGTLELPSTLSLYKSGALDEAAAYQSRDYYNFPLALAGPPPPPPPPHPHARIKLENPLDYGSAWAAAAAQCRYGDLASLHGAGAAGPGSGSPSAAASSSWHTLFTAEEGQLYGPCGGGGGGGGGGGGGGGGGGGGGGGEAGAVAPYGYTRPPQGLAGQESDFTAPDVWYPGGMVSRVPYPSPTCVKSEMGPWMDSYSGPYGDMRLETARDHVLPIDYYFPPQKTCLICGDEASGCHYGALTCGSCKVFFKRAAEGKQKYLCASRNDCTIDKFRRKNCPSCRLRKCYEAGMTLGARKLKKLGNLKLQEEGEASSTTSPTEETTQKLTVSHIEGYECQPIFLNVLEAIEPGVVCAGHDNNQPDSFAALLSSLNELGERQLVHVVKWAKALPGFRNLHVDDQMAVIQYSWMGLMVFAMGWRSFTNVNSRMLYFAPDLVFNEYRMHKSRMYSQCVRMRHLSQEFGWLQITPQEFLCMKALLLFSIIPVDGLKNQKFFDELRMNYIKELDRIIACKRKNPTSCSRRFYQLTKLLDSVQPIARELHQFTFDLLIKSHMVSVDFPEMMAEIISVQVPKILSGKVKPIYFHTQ
Description: Binding affinity for human androgen receptor in transiently-transfected COS-1 cells.

Androgen receptor [3] = target: T3, Androgen receptor
Description: Antagonistic activity against human androgen receptor (hAR) in co-transfected CV-1 cells.

Row | Compound | Efficacy [1] | IC50 (Progesterone receptor) | Ki (Androgen receptor [2]) | IC50 (Androgen receptor [3])
1 | CC1=C(C)C(C)(C)Nc2cc3nc(O)cc(C(F)(F)F)c3cc21 | 65% | – | – | –
2 | Oc1cc(C(F)(F)F)c2cc3c(cc2n1)NC1(CCCCC1)CC3 | 94% | 1830 nM | 9 nM | 35 nM
3 | CCC1(C)CCc2cc3c(C(F)(F)F)cc(=O)n(C)c3cc2N1C (configuration not stated) | 92% | 1100 nM | 10 nM | 24 nM
4 | CC12CCCN1c1cc3nc(O)cc(C(F)(F)F)c3cc1CC2 (configuration not stated) | 11% | > 10000 nM | – | –
5 | CC(O)(CS(=O)(=O)c1ccc(F)cc1)C(=O)Nc1ccc(C#N)c(C(F)(F)F)c1 (configuration not stated) [BICALUTAMIDE] | 88% | 1820 nM | – | –
6 | CC(C)(O)C(=O)Nc1ccc([N+](=O)[O-])c(C(F)(F)F)c1 | 90% | – | – | –
7 | CC1c2cc3c(C(F)(F)F)cc(O)nc3cc2NC(C)(C)C1(C)C (configuration not stated) | 93% | 362 nM | 358 nM | 57 nM
8 | CC1=CC(C)(C)Nc2cc3c(cc21)c(C(F)(F)F)cc(=O)n3C | 88% | 233 nM | 81 nM | 34 nM
9 | CCC1Cc2cc3c(C(F)(F)F)cc(=O)[nH]c3cc2NC1(C)C (configuration not stated) | – | 2330 nM | 251 nM | 46 nM
10 | C[C@H]1c2cc3c(C(F)(F)F)cc(O)nc3cc2NC(C)(C)[C@H]1C | 95% | 310 nM | – | –
11 | CC1(C)C=Cc2cc3c(C(F)(F)F)cc(O)nc3cc2N1 | 81% | 390 nM | 86 nM | 58 nM
12 | Cc1c2c(cc3c(C(F)(F)F)cc(=O)n(C)c13)C(C)CC(C)(C)N2 (configuration not stated) | 79% | 2930 nM | 40 nM | 31 nM
13 | CCC1(CC)CCc2cc3c(C(F)(F)F)cc(O)nc3cc2N1 | 81% | 2710 nM | 102 nM | 27 nM
14 | CC1=CC(C)(C)Nc2c1cc1c(C(F)(F)F)cc(=O)n(C)c1c2C | 68% | 4400 nM | 874 nM | –
15 | CC1=CC(C)(C)N(C)c2cc3nc(O)cc(C(F)(F)F)c3cc21 | 55% | 1680 nM | 695 nM | 156 nM
16 | CCC1(C)CCc2cc3c(C(F)(F)F)cc(=O)[nH]c3cc2N1 (configuration not stated) | – | 543 nM | – | –
17 | CCC1(C)CCc2cc3c(C(F)(F)F)cc(=O)n(C)c3cc2N1 (configuration not stated) | 73% | 3280 nM | 69 nM | 48 nM
18 | CC1(C)CCc2cc3c(C(F)(F)F)cc(=O)[nH]c3cc2N1 | – | 330 nM | – | –
19 | CC1=CC(C)(C)Nc2cc3[nH]c(=O)cc(C(F)(F)F)c3cc21 | – | 49 nM | – | –
20 | CCC1(C)CCc2cc3c(C(F)(F)F)cc(O)nc3cc2N1 (configuration not stated) | 91% | – | – | –
21 | CC1(C)CCc2cc3c(C(F)(F)F)cc(O)nc3cc2N1 | 80% | – | – | –
22 | CC1(C)Cc2cc3c(C(F)(F)F)cc(=O)[nH]c3cc2NC1(C)C | – | 876 nM | 189 nM | 83 nM
23 | CC1CC(C)(C)Nc2cc3nc(O)cc(C(F)(F)F)c3cc21 (configuration not stated) | 86% | 231 nM | – | –

Row | Compound | Efficacy [1] | IC50 (Progesterone receptor) | Ki (Androgen receptor [2]) | IC50 (Androgen receptor [3])
24 | CC1Cc2cc3c(C(F)(F)F)cc(=O)[nH]c3cc2NC1(C)C (configuration not stated) | – | 348 nM | 73 nM | 30 nM
25 | CC(C)C1CC(C)(C)Nc2cc3nc(O)cc(C(F)(F)F)c3cc21 (configuration not stated) | 59% | 3160 nM | 650 nM | 159 nM
26 | Cn1c(=O)cc(C(F)(F)F)c2cc3c(cc21)N1CCCC1(C)CC3 (configuration not stated) | 84% | 398 nM | – | –
27 | CCCC1(C)CCc2cc3c(C(F)(F)F)cc(O)nc3cc2N1 (configuration not stated) | 86% | – | – | –
28 | CN1c2cc3c(cc2CCC1(C)C)c(C(F)(F)F)cc(=O)n3C | 85% | 2200 nM | 17 nM | 19 nM
29 | CCC1CC(C)(C)Nc2cc3nc(O)cc(C(F)(F)F)c3cc21 (configuration not stated) | 74% | 274 nM | 54 nM | 27 nM
30 | CC1=CC(C)(C)Nc2cc3[nH]c(=O)cc(C)c3cc21 | – | 109 nM | 62 nM | 36 nM
31 | Cn1c(=O)cc(C(F)(F)F)c2cc3c(cc21)NC(C)(C)CC3 | 74% | 1240 nM | 56 nM | 36 nM
32 | CC1=CC(C)(C)N(C)c2cc3c(cc21)c(C(F)(F)F)cc(=O)n3C | 91% | 136 nM | 39 nM | 46 nM
33 | CC1=C(C)C(C)(C)Nc2cc3[nH]c(=O)cc(C(F)(F)F)c3cc21 | – | 393 nM | 268 nM | 68 nM
34 | CC1=CC(C)(C)Nc2c1cc1c(C(F)(F)F)cc(O)nc1c2C | 88% | – | – | –
35 | CC1Cc2cc3c(C(F)(F)F)cc(O)nc3cc2NC1(C)C (configuration not stated) | 89% | – | – | –
36 | C[C@@H]1c2cc3c(C(F)(F)F)cc(O)nc3cc2NC(C)(C)[C@H]1C | 92% | 735 nM | – | –
37 | CC1(C)Cc2cc3c(C(F)(F)F)cc(O)nc3cc2NC1(C)C | 98% | – | – | –
38 | CC1=CC(C)(C)Nc2cc3nc(O)cc(C(F)(F)F)c3cc21 | 62% | – | – | –
39 | CC1=CC(C)(C)Nc2cc3nc(O)cc(C)c3cc21 | 83% | – | – | –
40 | CC1CC(C)(C)Nc2cc3c(cc21)c(C(F)(F)F)cc(=O)n3C (configuration not stated) | 98% | 585 nM | 46 nM | 73 nM
41 | CCC1Cc2cc3c(C(F)(F)F)cc(O)nc3cc2NC1(C)C (configuration not stated) | 82% | – | – | –
42 | CC(=O)O[C@]1(C(C)=O)CC[C@H]2[C@@H]3C=C(Cl)C4=CC(=O)[C@@H]5C[C@@H]5[C@]4(C)[C@H]3CC[C@@]21C | 12% | – | – | –
43 | CCCC1(C)CCc2cc3c(C(F)(F)F)cc(=O)[nH]c3cc2N1 (configuration not stated) | – | 1140 nM | 69 nM | 42 nM
44 | Cc1c2c(cc3c(C(F)(F)F)cc(O)nc13)C(C)CC(C)(C)N2 (configuration not stated) | 74% | – | – | –
45 | Cc1c2c(cc3c(C(F)(F)F)cc(=O)[nH]c13)C(C)CC(C)(C)N2 (configuration not stated) | – | 3730 nM | 85 nM | 22 nM
